Reference: patent US20260165948A1, “A COMPOSITION FOR SKIN REGENERATION COMPRISING A CULTURE MEDIUM OF TONSIL-DERIVED MESENCHYMAL STEM CELLS, THE ANTIOXIDANT EFFECT OF WHICH IS ENHANCED BY N-ACETYLCYSTEINE (NAC)” (priority 2023, published 2026)

Columns and labels:
[1] = test system: tonsil-derived human MSCs; assay: Determination of NAC pretreatment concentration (cell viability); conditions: NAC 10 mM, pretreatment for 24 hours; FIG. 1
Protocol: In order to determine the concentration of NAC for pretreatment of tonsil-derived human MSCs, the tonsil-derived human MSCs were pretreated with NAC prepared in Example 1 at concentrations of 2, 4, 6, 8, 10, 15, and 100 mM for 24 hours, and then cell viability was evaluated.

[2] = test system: tonsil-derived human MSCs (hMSC-T, passage 6); assay: Antioxidant activity (ROS assay) with PYBR challenge; format: cell-based; conditions: NAC pretreatment 10 mM and 20 mM for 24 hours, then PYBR 5, 10, 20 μg/mL for 24 hours; FIG. 5
Protocol: In order to evaluate antioxidant activity upon NAC treatment, tonsil-derived human MSCs (hMSC-T, passage 6) were seeded in a culture medium at a density of 1×10^4 cells/well. On the following day, NAC was treated at concentrations of 10 mM and 20 mM for 24 hours. Thereafter, the cells were washed with PBS and the medium was replaced, followed by treatment with PYBR at concentrations of 5, 10, and 20 μg/mL. After 24 hours, the cells were washed three times with PBS and incubated in 100 μL of ROS working solution at 37° C. for 30 minutes in the dark. Absorbance was then measured at 488/525 nm (FIG. 4). A group not treated with NAC was used as a positive control.

[3] = test system: tonsil-derived human MSCs (hMSC-T, passage 6); assay: Cell viability upon NAC treatment (WST, absorbance at 450 nm) with PYBR challenge; format: cell-based; conditions: NAC pretreatment 10 mM and 20 mM for 24 hours, then PYBR 5, 10, 20 μg/mL for 24 hours; FIG. 3
Protocol: In order to evaluate cell viability upon NAC treatment, tonsil-derived human MSCs (hMSC-T, passage 6) were seeded in a culture medium at a density of 1×10^3 cells/well. On the following day, NAC was treated at concentrations of 10 mM and 20 mM for 24 hours. Thereafter, the cells were washed with PBS and the medium was replaced, followed by treatment with PYBR at concentrations of 5, 10, and 20 μg/mL. After 24 hours, the cells were washed three times with PBS and transferred to fresh medium (100 μL) containing 10 μL of WST solution, and incubated at 37° C. for 2 hours in the dark. Absorbance at 450 nm was then measured to evaluate cell viability (FIG. 2). A group not treated with NAC was used as a positive control.

CC(=O)NC(CS)C(=O)O (stereo not drawn) [NAC, 2-acetamido-3-sulfanylpropanoic acid]
cytotoxicity (cell viability) [1]: no cytotoxicity was observed | ROS levels after PYBR treatment [2]: significantly reduced ROS levels | cell viability after PYBR treatment [3]: significantly restored cell viability
